Values of other authors as cited in publication PMC7148434, “ACE-domain selectivity extends beyond direct interacting residues at the active site” (Biochemical Journal, 2020).
Where “and” joins values, the source holds several entries; their conditions need not be identical. Equal entries are not always repeated.

Columns and labels:
nACE [1] = target: nACE (Homo sapiens, UniProt P12821); parameters: The truncated (single domain) wild-type N-domain (nACE), wild-type C-domain (cACE) and N-domain mutant constructs; made in house; host or cells: CHO-K1; settings: nACE; ref Lubbe et al. [23]; cited from earlier work
Chain of nACE (Homo sapiens, UniProt P12821) (P12821 40-624 limits assumed): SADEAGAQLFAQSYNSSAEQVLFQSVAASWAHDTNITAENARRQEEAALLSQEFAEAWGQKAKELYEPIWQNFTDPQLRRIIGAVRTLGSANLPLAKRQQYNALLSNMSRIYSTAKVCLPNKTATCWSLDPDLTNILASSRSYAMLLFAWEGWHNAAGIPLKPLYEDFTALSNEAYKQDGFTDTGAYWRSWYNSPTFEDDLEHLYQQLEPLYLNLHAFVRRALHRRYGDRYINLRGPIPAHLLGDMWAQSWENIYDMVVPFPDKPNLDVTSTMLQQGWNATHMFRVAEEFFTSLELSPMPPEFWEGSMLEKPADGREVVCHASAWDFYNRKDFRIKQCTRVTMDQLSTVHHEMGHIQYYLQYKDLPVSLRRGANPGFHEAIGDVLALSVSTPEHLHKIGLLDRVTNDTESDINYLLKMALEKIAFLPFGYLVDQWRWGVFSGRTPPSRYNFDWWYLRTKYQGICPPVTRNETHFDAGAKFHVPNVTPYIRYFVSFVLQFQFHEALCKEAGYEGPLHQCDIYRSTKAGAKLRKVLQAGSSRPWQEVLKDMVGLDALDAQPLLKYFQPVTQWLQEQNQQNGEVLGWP

[2] = target: S′-nACE (S260T, E262S, D354E, S357V, T358V and E431D) (Homo sapiens, UniProt P12821, D383E/E291S/E460D/S289T/S386V/T387V); parameters: The truncated (single domain) wild-type N-domain (nACE), wild-type C-domain (cACE) and N-domain mutant constructs; made in house; host or cells: CHO-K1; settings: cited from earlier work
Chain of S′-nACE (S260T, E262S, D354E, S357V, T358V and E431D) (P12821 40-624 S289T/E291S/D383E/S386V/T387V/E460D): as the sequence (P12821 40-624 limits assumed) above, with S250T, E252S, D344E, S347V, T348V, E421D counted along it

[3] = target: S2_S′-nACE (S260T, E262S, D354E, S357V, T358V, Y369F, R381E and E431D) (Homo sapiens, UniProt P12821, D383E/E291S/E460D/R410E/S289T/S386V/T387V/Y398F); parameters: The truncated (single domain) wild-type N-domain (nACE), wild-type C-domain (cACE) and N-domain mutant constructs; made in house; host or cells: CHO-K1; settings: cited from earlier work
Chain of S2_S′-nACE (S260T, E262S, D354E, S357V, T358V, Y369F, R381E and E431D) (P12821 40-624 S289T/E291S/D383E/S386V/T387V/Y398F/R410E/E460D): as the sequence (P12821 40-624 limits assumed) above, with S250T, E252S, D344E, S347V, T348V, Y359F, R371E, E421D counted along it

[4] = target: S2-nACE (Y369F and R381E) (Homo sapiens, UniProt P12821, R410E/Y398F); parameters: The truncated (single domain) wild-type N-domain (nACE), wild-type C-domain (cACE) and N-domain mutant constructs; made in house; host or cells: CHO-K1; settings: cited from earlier work
Chain of S2-nACE (Y369F and R381E) (P12821 40-624 Y398F/R410E): as the sequence (P12821 40-624 limits assumed) above, with Y359F, R371E counted along it

cACE = cACE (Homo sapiens, UniProt P12821); parameters: The truncated (single domain) wild-type N-domain (nACE), wild-type C-domain (cACE) and N-domain mutant constructs; made in house; host or cells: CHO-K1; method as in Lubbe et al. [23]; settings: ref Lubbe et al. [23]; cited from earlier work
Chain of cACE (P12821 643-1222 limits assumed): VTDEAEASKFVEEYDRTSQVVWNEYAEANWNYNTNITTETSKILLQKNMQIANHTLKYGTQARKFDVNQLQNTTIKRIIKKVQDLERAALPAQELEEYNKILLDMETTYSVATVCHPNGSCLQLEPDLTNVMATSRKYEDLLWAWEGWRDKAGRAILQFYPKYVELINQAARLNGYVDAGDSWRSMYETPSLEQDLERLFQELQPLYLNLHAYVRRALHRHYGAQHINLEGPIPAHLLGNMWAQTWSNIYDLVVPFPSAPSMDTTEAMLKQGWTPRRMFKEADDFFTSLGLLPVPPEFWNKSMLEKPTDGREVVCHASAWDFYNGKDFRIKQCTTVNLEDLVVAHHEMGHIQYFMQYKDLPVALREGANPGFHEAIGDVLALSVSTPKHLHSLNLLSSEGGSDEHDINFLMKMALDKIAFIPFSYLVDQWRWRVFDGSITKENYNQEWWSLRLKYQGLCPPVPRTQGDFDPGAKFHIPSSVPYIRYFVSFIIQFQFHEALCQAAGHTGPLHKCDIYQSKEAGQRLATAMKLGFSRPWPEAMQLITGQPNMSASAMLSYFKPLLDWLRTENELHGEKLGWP

nACE [5] = settings: cited from earlier work

C[C@H](CP(=O)(O)[C@H](Cc1ccccc1)NC(=O)C(N)Cc1nnn[nH]1)C(=O)N[C@@H](C)C(N)=O (stereo partly drawn) [33RE]
Ki (nACE [1]): 11.2 ± 0.735 nM | Selectivity (Ki cACE/Ki nACE or mutant) ([2]; Ki cACE / Ki S′-nACE, ref Lubbe et al. [23]): 48 | decrease in binding affinity compared with nACE ([2]; S′-nACE relative to nACE): 22 fold | Ki ([2]; S′-nACE, ref Lubbe et al. [23]): 237 ± 13.6 nM | Selectivity (Ki cACE/Ki nACE or mutant) ([3]; Ki cACE / Ki S2_S′-nACE, ref Lubbe et al. [23]): 1.1 | decrease in binding affinity compared with nACE ([3]; S2_S′-nACE relative to nACE): 900 fold | Selectivity (Ki cACE/Ki nACE or mutant) ([4]; Ki cACE / Ki S2-nACE, ref Lubbe et al. [23]): 4 | decrease in binding affinity compared with nACE ([4]; S2-nACE relative to nACE): 254 fold | Ki ([4]; S2-nACE, ref Lubbe et al. [23]): 2790 ± 156 nM | Selectivity (Ki cACE/Ki nACE or mutant) (cACE): 1 | Selectivity (Ki cACE/Ki nACE or mutant) (nACE [5]; Ki cACE / Ki nACE (N-selectivity), ref Lubbe et al. [23]): 1000 and 1006 | selectivity over cACE (nACE [5]; nACE over cACE, previous kinetic studies): ~1000 fold
